Laboratory results from ChEMBL document CHEMBL4823296, “NMR-Guided Design of Potent and Selective EphA4 Agonistic Ligands” (J Med Chem, 2021).
Non-standard residues stand in square brackets, D forms with d. Residues, ends and D or L forms follow the SMILES beside them. *: point of attachment. Phe(4-(2-MeO-Ph)) = COc1ccccc1-c1ccc(C[C@H](N)C(=O)O)cc1; Cyclohexanoyl(1S,3S-3-NH2) = N[C@H]1CCC[C@H](C(=O)*)C1; Phe(4-guanidino) = N=C(N)Nc1ccc(C[C@H](N)C(=O)O)cc1; Trp(6-OMe) = COc1ccc2c(C[C@H](N)C(=O)O)c[nH]c2c1; Trp(5-OH) = N[C@@H](Cc1c[nH]c2ccc(O)cc12)C(=O)O; NHPh(4-CH2-morpholino) = c1cc(N*)ccc1CN1CCOCC1; NH(4-morpholinophenyl) = c1cc(N2CCOCC2)ccc1N*; Trp(7-aza) = N[C@@H](Cc1c[nH]c2ncccc12)C(=O)O; Bip = N[C@@H](Cc1ccc(-c2ccccc2)cc1)C(=O)O; 1Nal = N[C@@H](Cc1cccc2ccccc12)C(=O)O; 2Nal = N[C@@H](Cc1ccc2ccccc2c1)C(=O)O; d(hArg) = N=C(N)NCCCC[C@@H](N)C(=O)O; hArg = N=C(N)NCCCC[C@H](N)C(=O)O; X4 = COc1cc(CN*)cc(OC)c1; NHPh = c1ccc(N*)cc1; GABA = NCCCC(=O)O; X1 = Oc1ccccc1CN*; X2 = Oc1ccccc1N*; X3 = Oc1cccnc1N*

What was measured:
[1] = target: Ephrin type-A receptor 2 (Homo sapiens, UniProt P29317); experiment: Binding affinity to N-terminal His tagged EphA2 LBD (27 to 200 residues) (unknown origin) expressed in Origami (DE3) cells by isothermal titration calorimetry
[2] = target: T1, Ephrin type-A receptor 4 (Homo sapiens, UniProt P54764); experiment: Binding affinity to N-terminal His tagged EphA4 LBD (unknown origin) (29 to 209 residues) expressed in Rosetta-Gami B(DE3) cells by isothermal titration calorimetry
[3] = Aqueous solubility of compound; format: physicochemical; conditions: buffer
[4] = target: T1, Ephrin type-A receptor 4
Description: Binding affinity to N-terminal His tagged EphA4 LBD (unknown origin) (29 to 209 residues) expressed in Rosetta-Gami B(DE3) cells assessed as change in entropy by isothermal titration calorimetry

[5] = target: T1, Ephrin type-A receptor 4; remark: listed apart in the source
Description: Binding affinity to N-terminal His tagged EphA4 LBD (unknown origin) (29 to 209 residues) expressed in Rosetta-Gami B(DE3) cells assessed as change in enthalpy by isothermal titration calorimetry

T1 sequence (P54764 whole entry, the tested form may be a part): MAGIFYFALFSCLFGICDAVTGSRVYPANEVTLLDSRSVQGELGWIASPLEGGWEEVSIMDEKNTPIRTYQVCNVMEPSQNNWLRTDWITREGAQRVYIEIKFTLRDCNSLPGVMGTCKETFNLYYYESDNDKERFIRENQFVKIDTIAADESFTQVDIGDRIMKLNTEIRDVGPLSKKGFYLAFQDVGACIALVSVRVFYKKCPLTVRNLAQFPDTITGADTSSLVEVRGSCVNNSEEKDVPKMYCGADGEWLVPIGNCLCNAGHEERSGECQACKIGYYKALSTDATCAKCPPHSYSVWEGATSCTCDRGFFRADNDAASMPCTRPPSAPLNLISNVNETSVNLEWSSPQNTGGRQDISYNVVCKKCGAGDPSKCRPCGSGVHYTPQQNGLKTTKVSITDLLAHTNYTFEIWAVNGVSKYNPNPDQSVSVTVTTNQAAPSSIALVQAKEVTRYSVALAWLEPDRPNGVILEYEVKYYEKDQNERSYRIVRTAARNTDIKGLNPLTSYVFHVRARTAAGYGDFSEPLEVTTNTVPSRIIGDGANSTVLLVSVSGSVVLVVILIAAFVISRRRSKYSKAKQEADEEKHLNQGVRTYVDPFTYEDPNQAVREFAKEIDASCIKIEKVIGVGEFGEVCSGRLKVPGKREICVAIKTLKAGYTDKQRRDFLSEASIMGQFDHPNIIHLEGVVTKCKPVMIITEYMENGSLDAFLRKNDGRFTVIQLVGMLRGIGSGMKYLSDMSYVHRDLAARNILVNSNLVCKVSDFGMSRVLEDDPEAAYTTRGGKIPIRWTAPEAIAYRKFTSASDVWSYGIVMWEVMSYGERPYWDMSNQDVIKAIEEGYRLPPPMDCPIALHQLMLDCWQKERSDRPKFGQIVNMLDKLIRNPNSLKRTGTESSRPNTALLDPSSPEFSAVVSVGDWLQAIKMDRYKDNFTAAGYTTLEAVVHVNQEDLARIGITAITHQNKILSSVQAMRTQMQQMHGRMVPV
Sequence of Ephrin type-A receptor 2 (P29317 whole entry, the tested form may be a part): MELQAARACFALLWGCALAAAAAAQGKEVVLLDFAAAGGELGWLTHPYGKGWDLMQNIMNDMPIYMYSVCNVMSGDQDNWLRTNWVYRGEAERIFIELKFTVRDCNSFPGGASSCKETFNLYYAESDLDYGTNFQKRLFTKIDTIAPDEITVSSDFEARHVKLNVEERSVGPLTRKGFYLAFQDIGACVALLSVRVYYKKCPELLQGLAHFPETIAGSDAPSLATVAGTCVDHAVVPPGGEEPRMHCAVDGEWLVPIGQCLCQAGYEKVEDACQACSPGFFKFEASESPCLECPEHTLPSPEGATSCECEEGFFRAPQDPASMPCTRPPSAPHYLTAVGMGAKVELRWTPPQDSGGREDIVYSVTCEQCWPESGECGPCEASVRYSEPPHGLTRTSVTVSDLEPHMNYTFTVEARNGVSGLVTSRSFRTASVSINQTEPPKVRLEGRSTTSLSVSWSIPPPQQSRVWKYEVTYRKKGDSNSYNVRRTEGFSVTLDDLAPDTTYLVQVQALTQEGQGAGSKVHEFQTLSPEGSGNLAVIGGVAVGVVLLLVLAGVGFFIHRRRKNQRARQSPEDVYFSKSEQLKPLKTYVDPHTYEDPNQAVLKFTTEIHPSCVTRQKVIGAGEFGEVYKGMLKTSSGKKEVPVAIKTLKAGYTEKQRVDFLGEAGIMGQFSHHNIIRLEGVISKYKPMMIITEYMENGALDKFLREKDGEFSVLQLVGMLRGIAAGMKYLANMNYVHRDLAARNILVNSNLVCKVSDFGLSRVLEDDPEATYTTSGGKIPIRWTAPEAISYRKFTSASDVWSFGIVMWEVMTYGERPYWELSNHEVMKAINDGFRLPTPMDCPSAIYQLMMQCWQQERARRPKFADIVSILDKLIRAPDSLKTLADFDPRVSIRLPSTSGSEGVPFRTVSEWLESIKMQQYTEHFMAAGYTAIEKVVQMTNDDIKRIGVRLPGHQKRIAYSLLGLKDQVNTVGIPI

| Compound | Kd [1] | Kd [2] [nM] | solubility [3] [mM] | -TdeltaS [4] [kcal/mol] | deltaH [5] [kcal/mol] |
| --- | --- | --- | --- | --- | --- |
| COc1ccccc1-c1ccc(C[C@H](NC(=O)[C@H](Cc2c[nH]c3ccc(O)cc23)NC(=O)[C@H]2CCC[C@H](N)C2)C(=O)N[C@@H](CCCCNC(=N)N)C(=O)NCC(=O)Nc2ccc(N3CCOCC3)cc2)cc1 ({Cyclohexanoyl(1S,3S-3-NH2)}-[Trp(5-OH)][Phe(4-(2-MeO-Ph))][hArg]G-{NH(4-morpholinophenyl)}) | Not Active | 106 | > 50 | – | – |
| N=C(N)NCCCC[C@H](NC(=O)[C@H](Cc1ccc2ccccc2c1)NC(=O)[C@H](Cc1c[nH]c2ccc(O)cc12)NC(=O)CCCN)C(N)=O (H-[GABA][Trp(5-OH)][2Nal][hArg]-NH2) | – | 5250 | – | 1.27 | -8.49 |
| Cc1ccc(-c2ccc(C[C@H](NC(=O)[C@H](Cc3c[nH]c4ccc(O)cc34)NC(=O)CCCN)C(=O)N[C@@H](CCCCNC(=N)N)C(N)=O)cc2)cc1 | – | 708 | – | 1.77 | -10.2 |
| N=C(N)NCCCC[C@H](NC(=O)[C@H](Cc1ccc(-c2ccccc2)cc1)NC(=O)[C@H](Cc1c[nH]c2ccc(O)cc12)NC(=O)[C@@H]1CCC[C@@H](N)C1)C(N)=O | – | 1210 | – | 1.32 | -9.39 |
| COc1ccccc1-c1ccc(C[C@H](NC(=O)[C@H](Cc2c[nH]c3ccc(O)cc23)NC(=O)[C@H]2CCC[C@H](N)C2)C(=O)N[C@@H](CCCCNC(=N)N)C(=O)NCC(=O)Nc2ccc(CN3CCOCC3)cc2)cc1 ({Cyclohexanoyl(1S,3S-3-NH2)}-[Trp(5-OH)][Phe(4-(2-MeO-Ph))][hArg]G-{NHPh(4-CH2-morpholino)}) | Not Active | 77 | > 50 | – | – |
| N=C(N)Nc1ccc(C[C@H](NC(=O)[C@H](Cc2ccc(-c3ccccc3)cc2)NC(=O)[C@H](Cc2c[nH]c3ccccc23)NC(=O)CCCN)C(N)=O)cc1 (H-[GABA]W[Bip][Phe(4-guanidino)]-NH2) | – | 1160 | – | 1.33 | -9.43 |
| N=C(N)NCCCC[C@H](NC(=O)[C@H](Cc1ccc(-c2ccccc2)cc1)NC(=O)[C@H](Cc1c[nH]c2ccc(O)cc12)NC(=O)[C@H]1CCC[C@H](N)C1)C(N)=O | – | 370 | – | -0.67 | -8.1 |
| C[C@H](N)C(=O)N[C@@H](Cc1c[nH]c2ccccc12)C(=O)N[C@@H](Cc1ccc(-c2ccccc2)cc1)C(=O)N[C@@H](CCCCNC(=N)N)C(N)=O (HELM PEPTIDE1{A.W.[O=C([C@H](Cc1ccc(-c2ccccc2)cc1)N[*:1])[*:2]].[N=C(N)NCCCC[C@H](N[*:1])C(=O)[*:2]].[am]}$$$$V2.0) | – | 3020 | – | 2.01 | -9.54 |
| N=C(N)NCCCC[C@H](NC(=O)[C@H](Cc1ccc(-c2ccccc2)cc1)NC(=O)[C@H](Cc1c[nH]c2ccc(O)cc12)NC(=O)CCCN)C(=O)NCC(=O)Nc1ccccc1O (H-[GABA][Trp(5-OH)][Bip][hArg]G-X2) | – | 191 | – | 2.88 | -12 |
| N=C(N)NCCCC[C@H](NC(=O)[C@H](Cc1ccc(-c2ccccc2)cc1)NC(=O)[C@H](Cc1c[nH]c2ccc(O)cc12)NC(=O)CCCN)C(=O)NCC(=O)Nc1ncccc1O (H-[GABA][Trp(5-OH)][Bip][hArg]G-X3) | – | 488 | – | 0.86 | -9.48 |
| NCCCC[C@H](NC(=O)[C@H](Cc1ccc(-c2ccccc2)cc1)NC(=O)[C@H](Cc1c[nH]c2ccc(O)cc12)NC(=O)CCCN)C(N)=O (H-[GABA][Trp(5-OH)][Bip]K-NH2) | – | 437 | – | 2.54 | -11.2 |
| N=C(N)NCCCC[C@H](NC(=O)[C@H](Cc1ccc(-c2ccccc2)cc1)NC(=O)[C@H](Cc1c[nH]c2ccc(O)cc12)NC(=O)[C@@H]1CC[C@@H](N)C1)C(N)=O | – | 740 | – | 1.46 | -9.82 |
| N=C(N)NCCC[C@H](NC(=O)[C@H](Cc1ccc(-c2ccccc2)cc1)NC(=O)[C@H](Cc1c[nH]c2ccc(O)cc12)NC(=O)CCCN)C(N)=O (H-[GABA][Trp(5-OH)][Bip]R-NH2) | – | 459 | – | 2.35 | -11 |
| N=C(N)NCCCC[C@H](NC(=O)[C@H](Cc1ccc(-c2ccccc2)cc1)NC(=O)[C@H](Cc1c[nH]c2ncccc12)NC(=O)CCCN)C(N)=O (H-[GABA][Trp(7-aza)][Bip][hArg]-NH2) | – | 16300 | – | 0.74 | -7.27 |
| N=C(N)NCCCC[C@H](NC(=O)[C@H](Cc1ccc(-c2ccccc2)cc1)NC(=O)[C@H](Cc1c[nH]c2ccc(O)cc12)NC(=O)[C@H]1CCC[C@H](N)C1)C(=O)NCC(=O)Nc1ccc(CN2CCOCC2)cc1 ({Cyclohexanoyl(1S,3S-3-NH2)}-[Trp(5-OH)][Bip][hArg]G-{NHPh(4-CH2-morpholino)}) | Not Active | 144 | > 50 | – | – |
| N=C(N)NCCCC[C@H](NC(=O)[C@H](Cc1cccc2ccccc12)NC(=O)[C@H](Cc1c[nH]c2ccc(O)cc12)NC(=O)CCCN)C(N)=O (H-[GABA][Trp(5-OH)][1Nal][hArg]-NH2) | – | – | – | 1.46 | -8.22 |
| N=C(N)NCCCC[C@H](NC(=O)[C@H](Cc1ccc(-c2ccc(Cl)cc2)cc1)NC(=O)[C@H](Cc1c[nH]c2ccc(O)cc12)NC(=O)CCCN)C(N)=O | – | 749 | – | 2 | -10.4 |
| COc1cc(CNC(=O)CNC(=O)[C@H](CCCCNC(=N)N)NC(=O)[C@H](Cc2ccc(-c3ccccc3)cc2)NC(=O)[C@H](Cc2c[nH]c3ccc(O)cc23)NC(=O)CCCN)cc(OC)c1 (H-[GABA][Trp(5-OH)][Bip][hArg]G-X4) | – | 307 | – | 2.39 | -11.3 |
| COc1ccc2c(C[C@H](NC(=O)CCCN)C(=O)N[C@@H](Cc3ccc(-c4ccccc4)cc3)C(=O)N[C@@H](CCCCNC(=N)N)C(N)=O)c[nH]c2c1 (H-[GABA][Trp(6-OMe)][Bip][hArg]-NH2) | – | 2460 | – | 2.84 | -10.5 |
| N=C(N)NCCCC[C@H](NC(=O)[C@H](Cc1ccc(-c2ccccc2)cc1)NC(=O)[C@H](Cc1c[nH]c2ccc(O)cc12)NC(=O)CCCN)C(=O)NCC(=O)Nc1ccccc1 (H-[GABA][Trp(5-OH)][Bip][hArg]G-NHPh) | – | 132 | – | 2.87 | -12.3 |
| N=C(N)NCCCC[C@H](NC(=O)[C@H](Cc1ccc(-c2ccccc2)cc1)NC(=O)[C@H](Cc1c[nH]c2ccc(O)cc12)NC(=O)[C@H]1CC[C@H](N)C1)C(N)=O | – | 1120 | – | 0.21 | -8.33 |
| Cc1ccccc1-c1ccc(C[C@H](NC(=O)[C@H](Cc2c[nH]c3ccc(O)cc23)NC(=O)CCCN)C(=O)N[C@@H](CCCCNC(=N)N)C(N)=O)cc1 | – | 362 | – | 3.29 | -12.1 |
| N=C(N)NCCCC[C@H](NC(=O)[C@H](Cc1ccc(-c2ccccc2)cc1)NC(=O)[C@H](Cc1c[nH]c2ccccc12)NC(=O)CCCN)C(N)=O (H-[GABA]W[Bip][hArg]-NH2) | – | 663 | – | 2.27 | -10.7 |
| N=C(N)NCCCC[C@@H](NC(=O)[C@H](Cc1ccc(-c2ccccc2)cc1)NC(=O)[C@H](Cc1c[nH]c2ccccc12)NC(=O)CCCN)C(N)=O (H-[GABA]W[Bip][d(hArg)]-NH2) | – | 270 | – | 0.3 | -9.26 |
| N=C(N)NCCCC[C@H](NC(=O)[C@H](Cc1ccc(-c2ccccc2)cc1)NC(=O)[C@H](Cc1c[nH]c2ccc(O)cc12)NC(=O)CCCN)C(=O)NCC(=O)Nc1ccc(CN2CCOCC2)cc1 (H-[GABA][Trp(5-OH)][Bip][hArg]G-{NHPh(4-CH2-morpholino)}) | – | 106 | – | 1.05 | -10.6 |
| N=C(N)NCCCC[C@H](NC(=O)[C@H](Cc1ccc(-c2ccccc2)cc1)NC(=O)[C@H](Cc1c[nH]c2ccc(O)cc12)NC(=O)CCCN)C(=O)NCC(=O)NCc1ccccc1O (H-[GABA][Trp(5-OH)][Bip][hArg]G-X1) | – | 258 | – | 3 | -12 |
| N=C(N)NCCCC[C@H](NC(=O)[C@H](Cc1ccc(-c2ccccc2)cc1)NC(=O)[C@H](Cc1c[nH]c2ccccc12)NC(=O)CCN)C(N)=O (HELM PEPTIDE1{[bAla].W.[O=C([C@H](Cc1ccc(-c2ccccc2)cc1)N[*:1])[*:2]].[N=C(N)NCCCC[C@H](N[*:1])C(=O)[*:2]].[am]}$$$$V2.0) | – | 2130 | – | 3.77 | -11.5 |
| N=C(N)NCCCC[C@H](NC(=O)[C@H](Cc1ccc(-c2ccccc2)cc1)NC(=O)[C@H](Cc1c[nH]c2ccc(O)cc12)NC(=O)CCCN)C(=O)NCC(=O)Nc1ccc(N2CCOCC2)cc1 (H-[GABA][Trp(5-OH)][Bip][hArg]G-{NH(4-morpholinophenyl)}) | – | 94 | – | 1.63 | -11.2 |
